≈ marks a conversion by molar mass, not a printed value. Calls of active or inactive are those of the source. No cut-off for these calls is given here.
Legend:
[1] = system: Candida albicans; test: Antifungal activity against Candida albicans ATCC 90023; assay type: functional
[2] = system: Escherichia coli; test: Antibacterial activity against Escherichia coli ATCC 25922 by microbroth dilution method; assay type: functional
[3] = system: Klebsiella pneumoniae; test: Antibacterial activity against Klebsiella pneumoniae by microbroth dilution method; assay type: functional
[4] = system: Staphylococcus aureus; test: Antibacterial activity against drug-resistant Staphylococcus aureus by microbroth dilution method; assay type: functional
[5] = system: Staphylococcus aureus; test: Antibacterial activity against Staphylococcus aureus ATCC 25923 by microbroth dilution method; assay type: functional
[6] = system: Candida albicans; test: Antifungal activity against drug-resistant Candida albicans; assay type: functional
[7] = system: Pseudomonas aeruginosa; test: Antibacterial activity against Pseudomonas aeruginosa by microbroth dilution method; assay type: functional
[8] = system: Staphylococcus aureus; test: Antibacterial activity against Staphylococcus aureus ATCC 29213 by microbroth dilution method; assay type: functional
[9] = system: Acinetobacter baumannii; test: Antibacterial activity against Acinetobacter baumannii by microbroth dilution method; assay type: functional
[10] = system: Pseudomonas aeruginosa; test: Antibacterial activity against Pseudomonas aeruginosa ATCC 27853 by microbroth dilution method; assay type: functional
[11] = system: Escherichia coli; test: Antibacterial activity against drug-resistant Escherichia coli by microbroth dilution method; assay type: functional
[12] = system: Enterococcus faecalis; test: Antibacterial activity against drug-resistant Enterococcus faecalis by microbroth dilution method; assay type: functional
[13] = system: Candida parapsilosis; test: Antifungal activity against Candida parapsilosis ATCC 22019; assay type: functional; conditions: Lodderomyces parapsilosis
[14] = system: Candida tropicalis; test: Antifungal activity against drug-resistant Candida tropicalis; assay type: functional
[15] = system: Staphylococcus aureus; test: Antibacterial activity against methicillin-resistant Staphylococcus aureus N315 by microbroth dilution method; assay type: functional
[16] = system: Aspergillus fumigatus; test: Antifungal activity against Aspergillus fumigatus; assay type: functional
[17] = system: DNA; test: Displacement of neutral red from drug-resistant Staphylococcus aureus DNA assessed as DNA intercalation by measuring blue shift up to 1.5 x 10^-5 mol/L by UV-visible absorption spectra analysis (reference value: 460 nm); assay type: nucleic-acid assay; conditions: dose <= 1.5 10^-5mol/L
[18] = Cytotoxicity against mouse L929 cells assessed as cell viability up to 0.3019 mM measured after 72 hrs by MTT assay relative to control; assay type: toxicity, cell-based; conditions: read-out: Activity
[19] = Toxicity in mouse assessed as change in body weight at 5 to 10 mg/kg administered for 10 days; assay type: organism-based; conditions: in vivo, 240 h, dose 5-10 mg/kg, time 10 day
[20] = target: Topoisomerase IV (Staphylococcus aureus, UniProt P0C1S7+P0C1U9); test: Inhibition of drug-resistant Staphylococcus aureus topoisomerase 4; assay type: protein-complex assay
Topoisomerase IV, sequence (P0C1U9 whole entry): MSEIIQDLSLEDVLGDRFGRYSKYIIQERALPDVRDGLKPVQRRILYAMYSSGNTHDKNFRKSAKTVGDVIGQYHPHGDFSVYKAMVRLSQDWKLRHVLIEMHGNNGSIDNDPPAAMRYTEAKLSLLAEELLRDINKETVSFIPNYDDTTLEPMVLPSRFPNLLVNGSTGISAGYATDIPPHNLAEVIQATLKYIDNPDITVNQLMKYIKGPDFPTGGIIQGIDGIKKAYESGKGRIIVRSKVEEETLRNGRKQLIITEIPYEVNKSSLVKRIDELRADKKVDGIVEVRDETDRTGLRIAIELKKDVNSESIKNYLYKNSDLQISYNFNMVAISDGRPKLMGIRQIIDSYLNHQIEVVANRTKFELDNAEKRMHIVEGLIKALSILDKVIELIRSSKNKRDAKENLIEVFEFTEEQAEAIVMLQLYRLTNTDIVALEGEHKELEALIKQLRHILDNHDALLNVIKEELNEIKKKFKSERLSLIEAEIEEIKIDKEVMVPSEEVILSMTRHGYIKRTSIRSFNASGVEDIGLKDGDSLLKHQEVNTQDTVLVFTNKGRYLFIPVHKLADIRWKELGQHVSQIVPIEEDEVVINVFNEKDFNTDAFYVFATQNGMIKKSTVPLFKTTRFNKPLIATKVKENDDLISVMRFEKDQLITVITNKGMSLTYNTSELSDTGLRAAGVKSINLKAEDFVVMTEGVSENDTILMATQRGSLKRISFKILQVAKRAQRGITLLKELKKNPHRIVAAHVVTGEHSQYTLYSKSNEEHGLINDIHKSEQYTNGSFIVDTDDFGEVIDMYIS
Topoisomerase IV, sequence (P0C1S7 whole entry): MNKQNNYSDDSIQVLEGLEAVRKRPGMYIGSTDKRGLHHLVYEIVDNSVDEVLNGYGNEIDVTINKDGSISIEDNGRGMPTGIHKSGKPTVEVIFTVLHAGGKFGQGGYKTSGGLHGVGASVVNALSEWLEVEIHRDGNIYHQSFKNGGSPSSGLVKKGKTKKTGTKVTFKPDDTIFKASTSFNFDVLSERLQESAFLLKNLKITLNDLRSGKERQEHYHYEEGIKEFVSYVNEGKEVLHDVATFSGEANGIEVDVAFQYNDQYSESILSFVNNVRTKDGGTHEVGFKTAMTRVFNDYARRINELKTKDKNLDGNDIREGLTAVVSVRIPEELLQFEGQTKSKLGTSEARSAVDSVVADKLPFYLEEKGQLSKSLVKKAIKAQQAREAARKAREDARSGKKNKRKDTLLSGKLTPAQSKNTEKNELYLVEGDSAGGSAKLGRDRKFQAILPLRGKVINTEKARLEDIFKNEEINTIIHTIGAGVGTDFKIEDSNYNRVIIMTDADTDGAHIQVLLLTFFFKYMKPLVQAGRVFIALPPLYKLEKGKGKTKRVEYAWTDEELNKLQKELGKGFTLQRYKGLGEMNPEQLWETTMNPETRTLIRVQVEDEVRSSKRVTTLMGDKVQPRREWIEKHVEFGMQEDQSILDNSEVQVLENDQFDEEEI

[21] = system: Cell membrane; test: Induction of membrane permeabilization in drug-resistant Staphylococcus aureus at 0.0283 mM measured within 60 mins by propidium iodide staining based fluorescence assay
[22] = Toxicity in mouse assessed as change in spleen morphology at 5 to 10 mg/kg administered for 10 days by hematoxylin and eosin staining based assay; assay type: organism-based; conditions: in vivo, 240 h, dose 5-10 mg/kg, time 10 day
[23] = system: DNA; test: Binding affinity to drug-resistant Staphylococcus aureus DNA assessed as hypochromic effect at 7.86 x 10^-5 mol/L by UV-visible absorption spectra analysis; assay type: nucleic-acid assay; conditions: dose 7.86 10^-5mol/L
[24] = Hemolytic activity in human RBC assessed as hemolysis ratio at 0.0047 mM measured after 1 hr relative to control; assay type: toxicity, cell-based, Erythrocyte; conditions: red blood cells (erythrocytes)
[25] = Cytotoxicity against human A549 cells assessed as cell viability up to 0.3019 mM measured after 72 hrs by MTT assay relative to control; assay type: toxicity, cell-based; conditions: read-out: Activity
[26] = system: Staphylococcus aureus; test: Potency index, ratio of norfloxacin MIC to test compound MIC for drug-resistant Staphylococcus aureus by microbroth dilution method; assay type: functional
[27] = system: Staphylococcus aureus; test: Induction of resistance development in Staphylococcus aureus measured after 16 passages; assay type: functional
[28] = Hemolytic activity in human RBC assessed as hemolysis ratio at 0.0024 mM measured after 1 hr relative to control; assay type: toxicity, cell-based, Erythrocyte; conditions: red blood cells (erythrocytes)
[29] = system: DNA; test: Binding affinity to drug-resistant Staphylococcus aureus DNA by UV-visible absorption spectra analysis; assay type: nucleic-acid assay
[30] = Hemolytic activity in human RBC assessed as hemolysis ratio at 0.0189 mM measured after 1 hr relative to control; assay type: toxicity, cell-based, Erythrocyte; conditions: red blood cells (erythrocytes)
[31] = system: DNA; test: Displacement of neutral red from drug-resistant Staphylococcus aureus DNA assessed as DNA intercalation by UV-visible absorption spectra analysis; assay type: nucleic-acid assay; conditions: dose <= 1.5 10^-5mol/L
[32] = Toxicity in mouse assessed as change in liver morphology at 5 to 10 mg/kg administered for 10 days by hematoxylin and eosin staining based assay; assay type: organism-based; conditions: in vivo, 240 h, dose 5-10 mg/kg, time 10 day
[33] = Toxicity in mouse assessed as change in kidney morphology at 5 to 10 mg/kg administered for 10 days by hematoxylin and eosin staining based assay; assay type: organism-based; conditions: in vivo, 240 h, dose 5-10 mg/kg, time 10 day
[34] = Hemolytic activity in human RBC assessed as hemolysis ratio at 0.0094 mM measured after 1 hr relative to control; assay type: toxicity, cell-based, Erythrocyte; conditions: red blood cells (erythrocytes)

Row | SMILES | MIC [1] | MIC [2] | MIC [3] | MIC [4] | MIC [5] | MIC [6] | MIC [7] | MIC [8] | MIC [9] | MIC [10] | MIC [11] | MIC [12] | MIC [13] | MIC [14] | MIC [15] | MIC [16] | further results
1 | CC(=O)Cn1cc(-c2csc(C)n2)c(=O)c2cc(F)c(Cl)cc21 | 91 µM (≈ 31.9 µg/mL) | 731 µM (≈ 256 µg/mL) | 731 µM (≈ 256 µg/mL) | 366 µM (≈ 128 µg/mL) | 366 µM (≈ 128 µg/mL) | 366 µM (≈ 128 µg/mL) | 731 µM (≈ 256 µg/mL) | 366 µM (≈ 128 µg/mL) | 731 µM (≈ 256 µg/mL) | 366 µM (≈ 128 µg/mL) | 731 µM (≈ 256 µg/mL) | 366 µM (≈ 128 µg/mL) | 366 µM (≈ 128 µg/mL) | 731 µM (≈ 256 µg/mL) | 731 µM (≈ 256 µg/mL) | 731 µM (≈ 256 µg/mL) | 
2 | C/C(Cn1cc(-c2csc(C)n2)c(=O)c2cc(F)ccc21)=N\NC(N)=S | 658 µM (≈ 256 µg/mL) | 658 µM (≈ 256 µg/mL) | 165 µM (≈ 64.3 µg/mL) | 658 µM (≈ 256 µg/mL) | 658 µM (≈ 256 µg/mL) | 658 µM (≈ 256 µg/mL) | 658 µM (≈ 256 µg/mL) | 658 µM (≈ 256 µg/mL) | 658 µM (≈ 256 µg/mL) | 658 µM (≈ 256 µg/mL) | 658 µM (≈ 256 µg/mL) | 1320 µM (≈ 513 µg/mL) | 329 µM (≈ 128 µg/mL) | 1320 µM (≈ 513 µg/mL) | 658 µM (≈ 256 µg/mL) | 658 µM (≈ 256 µg/mL) | 
3 | C/C(Cn1cc(-c2csc(N)n2)c(=O)c2cc(F)c(Cl)cc21)=N\NC(N)=S | 19 µM (≈ 8.07 µg/mL) | 19 µM (≈ 8.07 µg/mL) | 302 µM (≈ 128 µg/mL) | 5 µM (≈ 2.12 µg/mL) | 38 µM (≈ 16.1 µg/mL) | 19 µM (≈ 8.07 µg/mL) | 76 µM (≈ 32.3 µg/mL) | 5 µM (≈ 2.12 µg/mL) | 151 µM (≈ 64.2 µg/mL) | 19 µM (≈ 8.07 µg/mL) | 151 µM (≈ 64.2 µg/mL) | 302 µM (≈ 128 µg/mL) | 5 µM (≈ 2.12 µg/mL) | 151 µM (≈ 64.2 µg/mL) | 38 µM (≈ 16.1 µg/mL) | 151 µM (≈ 64.2 µg/mL) | Activity [17]: 420 nm; viability at 72 h, up to 301.9 µM [18]: > 75%; Activity [19]: Toxic; IC50 [20]: 10.9 µM; Activity [21]: Active; Activity [22]: Non-Toxic; Activity [23]: Active; hemolysis at 1 h, 4.7 µM [24]: 1.07%; viability at 72 h, up to 301.9 µM [25]: > 75%; Ratio [26]: 5; Activity [27]: Active; hemolysis at 1 h, 2.4 µM [28]: 0.472%; K [29]: 6.32 10^4L/mol; hemolysis at 1 h, 18.9 µM [30]: 2.21%; Activity [31]: Dose-Dependent Effect; Activity [32]: Non-Toxic; Activity [33]: Non-Toxic; hemolysis at 1 h, 9.4 µM [34]: 1.25%
4 | CC(=O)Cn1cc(-c2csc(C)n2)c(=O)c2cc(F)c(F)cc21 | 766 µM (≈ 256 µg/mL) | 1530 µM (≈ 513 µg/mL) | 766 µM (≈ 256 µg/mL) | 766 µM (≈ 256 µg/mL) | 766 µM (≈ 256 µg/mL) | 1530 µM (≈ 513 µg/mL) | 1530 µM (≈ 513 µg/mL) | 766 µM (≈ 256 µg/mL) | 1530 µM (≈ 513 µg/mL) | 1530 µM (≈ 513 µg/mL) | 1530 µM (≈ 513 µg/mL) | 1530 µM (≈ 513 µg/mL) | 1530 µM (≈ 513 µg/mL) | 766 µM (≈ 256 µg/mL) | 1530 µM (≈ 513 µg/mL) | 766 µM (≈ 256 µg/mL) | 
5 | CC(=O)Cn1cc(C(C)=O)c(=O)c2cc(F)c(Cl)cc21 | 868 µM (≈ 257 µg/mL) | 868 µM (≈ 257 µg/mL) | 868 µM (≈ 257 µg/mL) | 1740 µM (≈ 513 µg/mL) | 868 µM (≈ 257 µg/mL) | 1740 µM (≈ 513 µg/mL) | 434 µM (≈ 128 µg/mL) | 1740 µM (≈ 513 µg/mL) | 868 µM (≈ 257 µg/mL) | 434 µM (≈ 128 µg/mL) | 868 µM (≈ 257 µg/mL) | 868 µM (≈ 257 µg/mL) | 217 µM (≈ 64.2 µg/mL) | 1740 µM (≈ 513 µg/mL) | 868 µM (≈ 257 µg/mL) | 868 µM (≈ 257 µg/mL) | 
6 | C/C(Cn1cc(-c2csc(C)n2)c(=O)c2cc(F)c(F)cc21)=N\NC(N)=S | 1260 µM (≈ 513 µg/mL) | 1260 µM (≈ 513 µg/mL) | 1260 µM (≈ 513 µg/mL) | 1260 µM (≈ 513 µg/mL) | 1260 µM (≈ 513 µg/mL) | 1260 µM (≈ 513 µg/mL) | 314 µM (≈ 128 µg/mL) | 1260 µM (≈ 513 µg/mL) | 314 µM (≈ 128 µg/mL) | 314 µM (≈ 128 µg/mL) | 1260 µM (≈ 513 µg/mL) | 629 µM (≈ 256 µg/mL) | 1260 µM (≈ 513 µg/mL) | 1260 µM (≈ 513 µg/mL) | 1260 µM (≈ 513 µg/mL) | 1260 µM (≈ 513 µg/mL) | 
7 | C/C(Cn1cc(-c2csc(N)n2)c(=O)c2cc(F)ccc21)=N\NC(N)=S | 328 µM (≈ 128 µg/mL) | 164 µM (≈ 64 µg/mL) | 656 µM (≈ 256 µg/mL) | 82 µM (≈ 32 µg/mL) | 82 µM (≈ 32 µg/mL) | 328 µM (≈ 128 µg/mL) | 656 µM (≈ 256 µg/mL) | 82 µM (≈ 32 µg/mL) | 328 µM (≈ 128 µg/mL) | 656 µM (≈ 256 µg/mL) | 328 µM (≈ 128 µg/mL) | 328 µM (≈ 128 µg/mL) | 656 µM (≈ 256 µg/mL) | 328 µM (≈ 128 µg/mL) | 164 µM (≈ 64 µg/mL) | 656 µM (≈ 256 µg/mL) | 
8 | Nc1nc(-c2c[nH]c3c(F)cc(F)cc3c2=O)cs1 | 115 µM (≈ 32.1 µg/mL) | 459 µM (≈ 128 µg/mL) | 459 µM (≈ 128 µg/mL) | 918 µM (≈ 256 µg/mL) | 459 µM (≈ 128 µg/mL) | 115 µM (≈ 32.1 µg/mL) | 459 µM (≈ 128 µg/mL) | 918 µM (≈ 256 µg/mL) | 459 µM (≈ 128 µg/mL) | 229 µM (≈ 64 µg/mL) | 459 µM (≈ 128 µg/mL) | 229 µM (≈ 64 µg/mL) | 459 µM (≈ 128 µg/mL) | 229 µM (≈ 64 µg/mL) | 459 µM (≈ 128 µg/mL) | 459 µM (≈ 128 µg/mL) | 

From ChEMBL document CHEMBL5584255, “Synthesis and antibacterial medicinal evaluation of carbothioamido hydrazonyl thiazolylquinolone with multitargeting antimicrobial potential to combat increasingly global resistance” (Eur J Med Chem, 2024)
